Assays:
[1] = tested on: Non-Small Lung Cancer Cells (NSLCs); test: Trypan Blue Exclusion Test of cancer cell viability; type: cell-based; conditions: defined in text as concentration of derivative causing greater than 90% of the cells to die; read-out: Anti-Cancer Activity (Trypan Blue Exclusion Assay) IC50
Protocol: The ability of 1,2,3-triazole derivatives according to the disclosure to kill cancer cells can be measured, e.g., by Trypan Blue Exclusion Assay which measured cell death by starvation due to the presence of the derivative (see EXAMPLE 4). The results obtained using this assay with some representative 1,2,3-triazole derivatives according to the disclosure are shown below in Table 4.
The effect of Derivative 1 on cancer cell viability was determined using the Trypan Blue Exclusion Test (Stober (2001) (Curr. Protoc. Immunol., May; Appendix 3:Appendix 3B. doi: 10.1002/0471142735.ima03bs21). The viability of Non-Small Lung Cancer Cells (NSLCs) was assessed over a period of 15 days after the promotion of coagulation with or without 200 μM of 1,2,3-triazole derivative 1 and with or without 2% human plasma. Fresh 2% FBS medium corresponding to each condition was added every 3 days. Cell death was analyzed using Trypan blue staining. 2% FBS medium was used as control. Some representative results are shown in FIGS. 4A-4F.

[2] = tested on: Non-Small Lung Cancer Cells (NSLCs); test: Cancer migration (wound healing) assay; type: cell-based; conditions: wound healing assay, dose-response curve; read-out: Anti-Cancer Activity (Inhibition of Cancer Cell Migration) IC50
Source text: The ability of 1,2,3-triazole derivatives according to the disclosure to inhibit cancer cell migration and proliferation in vitro can be measured, e.g., by a wound healing assay (Rodriguez et al., in Cell Migration: Developmental Methods and Protocols, Web et al., Guan ed. Humana Press 294, 23-29). This assay is based on the observation that, upon the creation of an artificial gap on a confluent cancer cell monolayer, the cells on the edge of the created gap will start migrating and proliferating until new cell-cell contacts are established (EXAMPLE 3).
Non-Small Lung Cancer Cells (NSLCs) migration rate was assessed in an in vitro wound healing assay. This assay is based on the observation that, upon the creation of an artificial gap on a confluent cell monolayer, the cells on the edge of the created gap will start migrating and proliferating until new cell-cell contacts are established.
A confluent cell layer is a prerequisite for starting this assay. Gap formation is done manually with a scrapper and cell proliferation and migration is determined recording a time-lapse video for 20 hr. with a time interval of 30 min. The microscopic pictures are manually analyzed for obtaining information about the proliferation and migration characteristics of the cultured cells and the image analysis detects the cell covered area.
NSLCs were cultured in Eagle's Minimum Essential Medium (ATCC-formulated medium, Catalog No. 30-2003) containing fetal bovine serum at 10% during several periods. Wound healing assays with supplemented medium containing 1,2,3-triazole derivatives were performed to evaluate the inhibitory effect on proliferation and migration of cancer cells.
In order to simulate as close as possible the in vivo cancer microenvironment, human plasma and calcium were added to the cell culture system to provide the hemostatic factors normally present in the cancer stroma. The previous day, cells were seeded with 10% FBS at a number that would provide 90% confluence the next day. On Day 0, a scratch (“a wound”) was performed in the middle of the well and the 10% FBS medium was replaced with 20% plasma, 20 mM calcium medium, with or without Derivative 1. 10% FBS medium was used as control in these experiments. “Wound healing” or closure of the scratch was assessed over a period of 4 days, and cell number in the wound area was quantified for each condition. Increasing amount of Derivative 1 (LTI6) was used to attain a dose-response curve.
The cell function effect of Derivative 1 was compared with Tranexamic Acid (TNA) and Caproic Acid (CA), commercially available and widely used anti-metastasis drugs.

[3] = tested on: fibrinolysis mediated by tPA (plasminogen activation by tPA); test: Fibrinolytic assay: one-step spectrophotometric clot lysis in human plasma; type: biochemical; conditions: concentration at which 50% of total fibrinolysis mediated by tPA is inhibited; human ACD plasma, clot triggered by TF, absorbance 340 nm; read-out: Anti-fibrinolytic (SERPIN) Activity IC50
Protocol: Fibrinolytic activity in human plasma was determined by a one-step spectrophotometric method (Gidron et al. (1978) J. Clin. Pathol. 31(1):54-57) with minor modifications (see EXAMPLE 2). In this method, fibrin clot formation in anticoagulant citrate dextrose (ACD) plasma samples obtained from healthy volunteers is triggered by tissue factor (TF) and can be quantified by spectrometry as a significant increase in basal plasma absorbance at 340 nm.
As shown in FIGS. 2A-2D, in the absence of tPA, plasma absorbance remains permanently elevated.
Fibrinolytic activity in human plasmas in the presence of derivatives according to the disclosure was determined by a one-step spectrophotometric method.
Fibrin clot formation in the anticoagulant acid citrate dextrose (ACD)-treated plasma obtained from healthy volunteers is triggered by tissue factor (TF) (Thromborel S, Siemens Healthineers) and quantifies by spectrophotometry at 340 nm (using a Molecular Devices SpectraMax® M2e Multimode Microplate Reader). When recombinant human Tissue Plasminogen Activator (tPA, final concentration of 5.2 μg/ml) is simultaneously added, fibrinolysis of the clot can be determined.
Fresh blood was extracted from healthy volunteers. ACD, to reach a 10% concentration, was instantly added to the extracted blood, to prevent any unwanted coagulation. After that, blood was centrifuged for 15 min at 1,000 g. Plasma was clearly separated from red blood cells. 3 mL aliquots of aspirated plasma were immediately frozen at −20° C.
4 mL of ddH2O was added to a vial of Thromborel S and mixed thoroughly for 2 min. and left at 4° C. 500 μL TF aliquots were used for each experiment.
Representative derivatives of the present disclosure (Nos. 1, 5, and 7) were diluted in DMSO (those with Boc) or ddH2O (those with HCl) to a final concentration of 10 mM. A solution containing 1 M Tris HCl, pH 7.5 (Fisher BioReagent) (Buffer A), 0.110 g of CaCl2) in 10 mL of ddH2O (Buffer B), and tPA (Abcam, 1.3 mg/mL added into the diluted derivative solution, final concentration in serum was 5.2 μg/mL), and the derivative was prepared in a total volume of 75 μL and added to untreated, flat, clear Costar® 96-well plates in triplicate. Absorbance at 340 nm at 37° C. for 30 min was recorded every 15 sec. The plates were shaken every 3 sec in between readings. Controls for basal plasma absorbance, basal coagulation absorbance and basal fibrinolytic activity absorbance were performed in every assay.
FIG. 2A show the results a control experiment displaying the ability of TF to cause fibrin clot formation in the absence and presence of t-PA. TF was able to cause fibrin clot formation evaluated as a significant increase of the basal plasma absorbance at 340 nm.

Compound	IC50 [1]	IC50 [2]	IC50 [3]
NCCn1cc(/C(N)=N/O)nn1 [Derivative 26]	470 µM	258 µM	153 µM
N/C(Cc1cn(C2CCC(N)CC2)nn1)=N/O (stereo not drawn) [Derivative 27]	480 µM	310 µM	189 µM
NCCn1cc(C/C(N)=N\O)nn1 [Derivative 28]	140 µM	69 µM	23 µM
NC1CCC(n2cc(C(=O)O)nn2)CC1 (stereo not drawn) [Derivative 29]	218 µM	129 µM	67 µM
NCCn1cc(C(=O)O)nn1 [Derivative 30]	710 µM	520 µM	370 µM
NC1CCC(n2ccnn2)CC1 (stereo not drawn) [Derivative 31]	310 µM	190 µM	74 µM
NCCn1ccnn1 [Derivative 32]	101 µM	101 µM	35 µM
N=C(N)c1cn(C2CCNCC2)nn1 [Derivative 33]	184 µM	82 µM	29 µM
N=C(N)c1cn(CCCN)nn1 [Derivative 34]	350 µM	220 µM	101 µM
N=C(N)c1cn(C2CCC(N)CC2)nn1 (stereo not drawn) [Derivative 35]	670 µM	450 µM	290 µM
N=C(N)c1cn(CCN)nn1 [Derivative 36]	415 µM	278 µM	119 µM
O=c1[nH]c(-c2cn(C3CCNCC3)nn2)no1 [compound 9, 3-(1-(piperidin-4-yl)-1H-1,2,3-triazol-4-yl)-1,2,4-oxadiazol-5(4H)-one]	1100 µM	820 µM	500 µM
O=c1[nH]nc(-c2cn(C3CCNCC3)nn2)o1 [compound 12, 5-(1-(piperidin-4-yl)-1H-1,2,3-triazol-4-yl)-1,3,4-oxadiazol-2(3H)-one]	110 µM	65 µM	25 µM
